The values that follow are results of earlier work, collected in patent US20240216293A1, “USE OF PERILLYL ALCOHOL TO ENHANCE LEVO-DOPA DELIVERY” (NEONC TECHNOLOGIES, INC, priority 2021, published 2024).

This data set has as its system patients with recurrent malignant gliomas. The note with it: Phase I/IIa trials, intranasal.

As for `C=C(C)C1CC=C(CO)CC1` (stereo not shown) [NEO100, perillyl alcohol], the toxic side effects entry is listed as “without toxic side effects”.
